# Data from PubChem BioAssay (NCI).
#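 Assay format: 96-well plates, 48-hour exposure. Definition used: TGI = concentration required for complete inhibition of growth.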
# Legend:
# Experiment in all cases: NCI anticancer screen, dose series, 48 h
# DU-145 prostate = test system: DU-145 prostate
# A549 NSCLC = test system: A549 NSCLC
# MDA-N = test system: MDA-N
# CCRF-CEM leukemia = test system: CCRF-CEM leukemia
# NCI-H522 lung = test system: NCI-H522 lung
# EKVX NSCLC = test system: EKVX NSCLC
# UACC-257 melanoma = test system: UACC-257 melanoma
# 786-0 renal = test system: 786-0 renal
# OVCAR-8 ovarian = test system: OVCAR-8 ovarian
# HCC-2998 colon = test system: HCC-2998 colon
# HL-60(TB) leukemia = test system: HL-60(TB) leukemia
# ACHN renal = test system: ACHN renal
# HCT-116 colon = test system: HCT-116 colon
# CAKI-1 renal = test system: CAKI-1 renal
# UACC-62 melanoma = test system: UACC-62 melanoma
# BT-549 breast = test system: BT-549 breast
# HOP-62 NSCLC = test system: HOP-62 NSCLC
# NCI-H226 lung = test system: NCI-H226 lung
# SK-OV-3 ovarian = test system: SK-OV-3 ovarian
# SF-268 CNS = test system: SF-268 CNS
# SK-MEL-28 melanoma = test system: SK-MEL-28 melanoma
# COLO 205 colon = test system: COLO 205 colon
# A498 renal = test system: A498 renal
# M14 melanoma = test system: M14 melanoma
# SW-620 colon = test system: SW-620 colon
# K-562 leukemia = test system: K-562 leukemia
# MOLT-4 leukemia = test system: MOLT-4 leukemia
# UO-31 renal = test system: UO-31 renal
# HCT-15 colon = test system: HCT-15 colon
# T-47D breast = test system: T-47D breast
# MCF7 breast = test system: MCF7 breast
# SR leukemia = test system: SR leukemia
# KM12 colon = test system: KM12 colon
# MDA-MB-231 breast = test system: MDA-MB-231 breast
# NCI-H460 lung = test system: NCI-H460 lung
# SK-MEL-2 melanoma = test system: SK-MEL-2 melanoma
# OVCAR-3 ovarian = test system: OVCAR-3 ovarian
# SK-MEL-5 melanoma = test system: SK-MEL-5 melanoma
# NCI/ADR-RES ovarian = test system: NCI/ADR-RES ovarian
# NCI-H23 lung = test system: NCI-H23 lung
# HT29 colon = test system: HT29 colon
# OVCAR-4 ovarian = test system: OVCAR-4 ovarian
# SNB-19 CNS = test system: SNB-19 CNS
# OVCAR-5 ovarian = test system: OVCAR-5 ovarian
# SN12C renal = test system: SN12C renal
# PC-3 prostate = test system: PC-3 prostate
# U251 CNS = test system: U251 CNS
# SF-295 CNS = test system: SF-295 CNS
# SF-539 CNS = test system: SF-539 CNS
# HS 578T breast = test system: HS 578T breast
# TK-10 renal = test system: TK-10 renal
# IGROV1 ovarian = test system: IGROV1 ovarian
# SNB-75 CNS = test system: SNB-75 CNS
# MALME-3M melanoma = test system: MALME-3M melanoma
# HOP-92 NSCLC = test system: HOP-92 NSCLC
# RPMI-8226 leukemia = test system: RPMI-8226 leukemia
# RXF 393 renal = test system: RXF 393 renal
# LOX IMVI melanoma = test system: LOX IMVI melanoma
compound,measurement,setting,value
N#Cc1nn(C(N)=O)c(N)c1C#N,TGI,DU-145 prostate,> 100 µM
same,TGI,A549 NSCLC,> 100 µM
same,TGI,MDA-N,> 100 µM
same,TGI,CCRF-CEM leukemia,> 100 µM
same,TGI,NCI-H522 lung,> 100 µM
same,TGI,EKVX NSCLC,> 100 µM
same,TGI,UACC-257 melanoma,> 100 µM
same,TGI,786-0 renal,> 100 µM
same,TGI,OVCAR-8 ovarian,> 100 µM
same,TGI,HCC-2998 colon,> 100 µM
same,TGI,HL-60(TB) leukemia,> 100 µM
same,TGI,ACHN renal,> 100 µM
same,TGI,HCT-116 colon,> 100 µM
same,TGI,CAKI-1 renal,> 100 µM
same,TGI,UACC-62 melanoma,> 100 µM
same,TGI,BT-549 breast,> 100 µM
same,TGI,HOP-62 NSCLC,> 100 µM
same,TGI,NCI-H226 lung,> 100 µM
same,TGI,SK-OV-3 ovarian,> 100 µM
same,TGI,SF-268 CNS,> 100 µM
same,TGI,SK-MEL-28 melanoma,> 100 µM
same,TGI,COLO 205 colon,> 100 µM
same,TGI,A498 renal,> 100 µM
same,TGI,M14 melanoma,> 100 µM
same,TGI,SW-620 colon,> 100 µM
same,TGI,K-562 leukemia,> 100 µM
same,TGI,MOLT-4 leukemia,> 100 µM
same,TGI,UO-31 renal,> 100 µM
same,TGI,HCT-15 colon,> 100 µM
same,TGI,T-47D breast,> 100 µM
same,TGI,MCF7 breast,> 100 µM
same,TGI,SR leukemia,> 100 µM
same,TGI,KM12 colon,> 100 µM
same,TGI,MDA-MB-231 breast,> 100 µM
same,TGI,NCI-H460 lung,> 100 µM
same,TGI,SK-MEL-2 melanoma,> 100 µM
same,TGI,OVCAR-3 ovarian,> 100 µM
same,TGI,SK-MEL-5 melanoma,> 100 µM
same,TGI,NCI/ADR-RES ovarian,> 100 µM
same,TGI,NCI-H23 lung,> 100 µM
same,TGI,HT29 colon,> 100 µM
same,TGI,OVCAR-4 ovarian,> 100 µM
same,TGI,SNB-19 CNS,> 100 µM
same,TGI,OVCAR-5 ovarian,> 100 µM
same,TGI,SN12C renal,> 100 µM
same,TGI,PC-3 prostate,> 100 µM
same,TGI,U251 CNS,> 100 µM
same,TGI,SF-295 CNS,> 100 µM
same,TGI,SF-539 CNS,> 100 µM
same,TGI,HS 578T breast,> 100 µM
same,TGI,TK-10 renal,> 100 µM
same,TGI,IGROV1 ovarian,> 100 µM
same,TGI,SNB-75 CNS,> 100 µM
NN/C(=N\S(=O)(=O)c1cc2ccccc2o1)Nc1ccc(Cl)cc1,TGI,DU-145 prostate,> 100 µM
same,TGI,A549 NSCLC,> 100 µM
same,TGI,MDA-N,> 100 µM
same,TGI,CCRF-CEM leukemia,> 100 µM
same,TGI,NCI-H522 lung,68.3 µM
same,TGI,EKVX NSCLC,> 100 µM
same,TGI,UACC-257 melanoma,> 100 µM
same,TGI,786-0 renal,> 100 µM
same,TGI,OVCAR-8 ovarian,> 100 µM
same,TGI,HL-60(TB) leukemia,> 100 µM
same,TGI,MALME-3M melanoma,> 100 µM
same,TGI,ACHN renal,> 100 µM
same,TGI,HOP-92 NSCLC,59.5 µM
same,TGI,HCT-116 colon,> 100 µM
same,TGI,CAKI-1 renal,> 100 µM
same,TGI,UACC-62 melanoma,> 100 µM
same,TGI,BT-549 breast,> 100 µM
same,TGI,HOP-62 NSCLC,> 100 µM
same,TGI,NCI-H226 lung,> 100 µM
same,TGI,SK-OV-3 ovarian,> 100 µM
same,TGI,SF-268 CNS,> 100 µM
same,TGI,SK-MEL-28 melanoma,> 100 µM
same,TGI,COLO 205 colon,> 100 µM
same,TGI,A498 renal,> 100 µM
same,TGI,RPMI-8226 leukemia,> 100 µM
same,TGI,M14 melanoma,> 100 µM
same,TGI,SW-620 colon,> 100 µM
same,TGI,K-562 leukemia,> 100 µM
same,TGI,MOLT-4 leukemia,> 100 µM
same,TGI,UO-31 renal,> 100 µM
same,TGI,HCT-15 colon,> 100 µM
same,TGI,T-47D breast,> 100 µM
same,TGI,MCF7 breast,> 100 µM
same,TGI,SR leukemia,> 100 µM
same,TGI,KM12 colon,> 100 µM
same,TGI,MDA-MB-231 breast,> 100 µM
same,TGI,NCI-H460 lung,> 100 µM
same,TGI,SK-MEL-2 melanoma,> 100 µM
same,TGI,OVCAR-3 ovarian,> 100 µM
same,TGI,SK-MEL-5 melanoma,> 100 µM
same,TGI,NCI/ADR-RES ovarian,> 100 µM
same,TGI,NCI-H23 lung,> 100 µM
same,TGI,HT29 colon,> 100 µM
same,TGI,OVCAR-4 ovarian,> 100 µM
same,TGI,RXF 393 renal,64.2 µM
same,TGI,SNB-19 CNS,> 100 µM
same,TGI,OVCAR-5 ovarian,> 100 µM
same,TGI,SN12C renal,> 100 µM
same,TGI,PC-3 prostate,> 100 µM
same,TGI,U251 CNS,> 100 µM
same,TGI,SF-295 CNS,> 100 µM
same,TGI,SF-539 CNS,> 100 µM
same,TGI,HS 578T breast,97.2 µM
same,TGI,TK-10 renal,> 100 µM
same,TGI,LOX IMVI melanoma,> 100 µM
same,TGI,IGROV1 ovarian,> 100 µM
same,TGI,SNB-75 CNS,85.8 µM
